Blank lines part the entries; values can stand above or below the compound they belong to. Where a SMILES comes first, the peptide text is derived from it. [ ]: non-standard residue; d: D form. Thyronine(3,5,3'-I3) = N[C@@H](Cc1cc(I)c(Oc2ccc(O)c(I)c2)c(I)c1)C(=O)O
Columns and labels:
[1] = Solid dose oral delivery, total T3 serum concentration AUC
[2] = biological target: amidase (EC 3.5.1.4; from Pseudomonas aeruginosa) (Pseudomonas aeruginosa, UniProt P11436); conditions: Table 1; 37° C., 24 hours
[3] = rat, in vivo
[4] = design: species or system Sprague-dawley rats; conditions: rat, in vivo
Protocol: (§1) Compounds were tested in Sprague-dawley rats (˜250 g). […] Rats were dosed immediately following 0 hour serum collection.

[5] = Solution dose oral delivery, T4 N-capped trimer vs. T4 sodium salt, total serum T4; design: species or system Sprague-dawley rats; conditions: rat, in vivo
Protocol: as §1

amidase (EC 3.5.1.4; from Pseudomonas aeruginosa), sequence (P11436 whole entry): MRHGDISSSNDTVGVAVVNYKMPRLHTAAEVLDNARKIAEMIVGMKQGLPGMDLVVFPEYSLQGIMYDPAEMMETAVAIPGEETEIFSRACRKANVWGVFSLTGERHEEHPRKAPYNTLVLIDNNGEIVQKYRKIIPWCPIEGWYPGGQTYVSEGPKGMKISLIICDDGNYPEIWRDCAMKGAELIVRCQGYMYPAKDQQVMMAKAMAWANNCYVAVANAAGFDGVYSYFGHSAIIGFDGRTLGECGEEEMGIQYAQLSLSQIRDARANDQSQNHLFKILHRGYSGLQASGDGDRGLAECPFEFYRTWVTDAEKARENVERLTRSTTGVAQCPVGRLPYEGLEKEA

Structure (SMILES): N[C@@H](CCC(=O)O)C(=O)N[C@@H](CCC(=O)O)C(=O)N[C@@H](CCC(=O)O)C(=O)N[C@@H](CCC(=O)O)C(=O)N[C@@H](CCC(=O)O)C(=O)N[C@@H](CCC(=O)O)C(=O)N[C@@H](CCC(=O)O)C(=O)N[C@@H](CCC(=O)O)C(=O)N[C@@H](CCC(=O)O)C(=O)N[C@@H](CCC(=O)O)C(=O)N[C@@H](CCC(=O)O)C(=O)N[C@@H](CCC(=O)O)C(=O)N[C@@H](CCC(=O)O)C(=O)N[C@@H](CCC(=O)O)C(=O)N[C@@H](CCC(=O)O)C(=O)N[C@@H](Cc1cc(I)c(Oc2ccc(O)c(I)c2)c(I)c1)C(=O)N[C@@H](CCC(=O)O)C(=O)N[C@@H](CCC(=O)O)C(=O)N[C@@H](CCC(=O)O)C(=O)N[C@@H](CCC(=O)O)C(=O)O [20-Mer] (H-EEEEEEEEEEEEEEE[Thyronine(3,5,3'-I3)]EEEE-OH)
total AUC divided by total AUC for T3 sodium ([1]; Study No. 12, rats): (69%)

Structure (SMILES): CCCCCCCC(=O)N[C@@H](Cc1cc(I)c(Oc2ccc(OC(=O)CCCCCCC)c(I)c2)c(I)c1)C(=O)O [C8T3(C8), N-Octanoyl-L-triiodothyronine(O-octanoyl)]
enzymatic release of T3, Amidase [2]: 0.0

Structure (SMILES): N[C@@H](Cc1cc(I)c(Oc2ccc(O)c(I)c2)c(I)c1)C(=O)N[C@@H](CCC(=O)O)C(=O)N[C@@H](CCC(=O)O)C(=O)O [T3 N-capped trimer, H-(T3)EE-OH]
increase of Cmax over the corresponding T3 sodium salt control [3]: 50.8%
increase of mean AUC relative to the corresponding T3 sodium salt control [3]: 72.1%
increase of Δmax over the corresponding T3 sodium salt control [3]: 85.6%
total AUC divided by total AUC for T3 sodium ([1]; Study No. 11, rats): 123%
total AUC divided by total AUC for T3 sodium ([1]; Study No. 11, rats, listed as N-Capped Trimer): (123%)
total AUC divided by total AUC for T3 sodium ([1]; Study No. 17, rats): (102%)
increase of Cmax as compared to T3 sodium salt [4]: 65.2%
increase of mean AUC relative to the T3 sodium salt AUC [4]: 50.3%
increase of Δmax relative to the Δmax of T3 sodium salt [4]: 75.9%

Structure (SMILES): CCCCCCCCCCCCCCCC(=O)Oc1ccc(Oc2c(I)cc(CC(N)C(=O)O)cc2I)cc1I.O=C(O)C(F)(F)F (centres unmarked) [T3C16, Trioodothyronine Hexadeconoate—TFA]
enzymatic release of T3, Amidase [2]: 1.2

Other lines, results leading:

total AUC divided by total AUC for T3 sodium ([1]; Study No. 13, rats): (81%)
Structure (SMILES): N[C@@H](CCC(=O)O)C(=O)N[C@@H](Cc1cc(I)c(Oc2ccc(O)c(I)c2)c(I)c1)C(=O)O [C-Capped Dimer]

total AUC divided by total AUC for T3 sodium ([1]; Study No. 13, rats): (89%)
Structure (SMILES): N[C@@H](CCC(=O)O)C(=O)N[C@@H](CCC(=O)O)C(=O)N[C@@H](Cc1cc(I)c(Oc2ccc(O)c(I)c2)c(I)c1)C(=O)O [C-Capped Trimer]

total AUC divided by total AUC for T3 sodium ([1]; Study No. 11, rats): (104%)
Structure (SMILES): N[C@@H](Cc1cc(I)c(Oc2ccc(O)c(I)c2)c(I)c1)C(=O)N[C@@H](CCC(=O)O)C(=O)O [N-Capped Dimer]

Tmax (time to reach maximal concentration) ([5]; Sprague-Dawley, po): 10.2 h
increase of Cmax as compared to the sodium salt [5]: 48%
increase of mean AUC relative to the T4 sodium salt AUC [5]: 115%
increase of Δmax (Δ at Cmax) relative to the Δmax of T4 sodium salt [5]: 68%
Cmax +/− SD ([5]; po): 13.0 ± 0.6 ng/dL
Cmax, Percent of T4 sodium salt ([5]; po): 148%
Delta @ Cmax (change in total T4 serum levels from 0 hour level) ([5]; po): 6.7 ± 1.5 ng/dL
Delta @ Cmax, Percent of T4 sodium salt ([5]; po): 168%
Structure (SMILES): N[C@@H](Cc1cc(I)c(Oc2cc(I)c(O)c(I)c2)c(I)c1)C(=O)N[C@@H](CCC(=O)O)C(=O)N[C@@H](CCC(=O)O)C(=O)O [T4 N-capped trimer]
